Square brackets hold non-standard residues; d marks the D form. Ends that are not written are not given here. pGlu = O=C1CC[C@@H](C(=O)O)N1
How the values were obtained:
[1] = tested on: Primary Human endothelial cells (HUVEC); assay: Endothelial cell migration assay; type: cell-based; details: 10 micrograms per ml, 22 hours
Procedure: Thereafter, designated concentration of testing peptides—10 micrograms per ml—was added in duplicate wells.

HCMV strain AD169 = assay: HCMV plaque formation assay in MRC-5 cells; details: 10 micrograms per ml, 7-10 days
Source text: Cells were split twic a week 1:2.
Ganciclovir was used as positive control.

HUVEC = assay: Endothelial tube formation assay; type: cell-based, human; details: 10 micrograms per ml, 20 hours
Source text: Positive control was vehicle only. […] Raw data were expressed as average tubule lenghs in pixels±standard deviation.

[2] = tested on: hepatitis B virus (HBV) ayw strain; assay: HBV experimental assay system, secreted HBV DNA by TaqMan PCR; type: cell-based; details: 10 micrograms per ml; HepG2-2.2.15 cells; six days
RAW 264.7 cells = assay: Phagocytosis assay; details: 10 micrograms per ml, Fluorescein-labeled Escherichia coli
[3] = tested on: spleen cells of Ovalbumin-immunized Balb/c mice; assay: Th1/Th2 cytokine profiling assay; type: cell-based, mouse; details: 10 micrograms per ml; Ovalbumin restimulation; 72 hours
Source text: The Balb/c mice (originated in 1923, it is a popular strain and is used in many different research disciplines. Also classified as an inbred from the production of 20 or more successive brother-sister matings, the Balb/c mouse is albino and small in size) were immunized on Days 1, 15, and 29 with Ovalbumin (Ovalbumin is the main protein found in egg white, commonly used to stimulate an immunological reaction in test animals) in PBS (5 micrograms/injection). On day 50, spleens of the mice were harvested (3 weeks after last boost with Ovalbumin). Cells were cultured (2×10^5/well in triplicate) and incubated with culture medium or test peptides—10 micrograms per ml—for 30 min. Thereafter, additional Ovalbumin was added to the cells at 10 micrograms/ml for in vitro restimulation of the cells. 72 hours later, cell supernatants were harvested and assayed using the Becton Dickinson Mouse Th1/Th2 Cytokine CBA Kit.

Substance | induction of the migration of human endothelial cells [1] [%] | inhibition of HCMV plaque formation as compared to the virus control experiment (HCMV strain AD169) | inhibition of the tube formation of human endothelial cells (HUVEC) [%] | inhibition of HBV replication as compared to the virus control infection [2] | induction of phagocytosis as compared to the virus control experiment (RAW 264.7 cells) | IFNγ spleen cells; TH1 response (% of control) [3] | IL-2 spleen cells (% of control) [3] | IL-4 spleen cells; TH2 response (% of control) [3] | IL-5 spleen cells; TH2 response (% of control) [3] | TNF-a spleen cells; TH1 response (% of control) [3]
Pyr-Ala-Asp-Pro-Asn-Lys-Phe-Tyr-Gly-Leu-Met-NH2 ([pGlu]ADPNKFYGLM-NH2; SMILES CSCC[C@H](NC(=O)[C@H](CC(C)C)NC(=O)CNC(=O)[C@H](Cc1ccc(O)cc1)NC(=O)[C@H](Cc1ccccc1)NC(=O)[C@H](CCCCN)NC(=O)[C@H](CC(N)=O)NC(=O)[C@@H]1CCCN1C(=O)[C@H](CC(=O)O)NC(=O)[C@H](C)NC(=O)[C@@H]1CCC(=O)N1)C(N)=O) [peptide 2] | 15 | did not show any inhibition | 6 | no effect | did not induce phagocytosis | 74.2 % of control | 0.0 % of control | 0.0 % of control | 53.0 % of control | 85.7 % of control
Gly-Leu-Ser-Lys-Gly-Cys-Phe-Gly-Leu-Lys-Leu-Asp-Arg-Ile-Gly-Ser-Met-Ser-Gly-Leu-Gly-Cys-OH (GLSKGCFGLKLDRIGSMSGLGC-OH; cysteine pairing not given here) [peptide 1] | – | did not show any inhibition | 22 | 10.1% | 42.9% | 140.2 % of control | 52.2 % of control | 0.0 % of control | 56.3 % of control | 111.8 % of control

Source: patent publication US20100249017A1, “USE OF CNP-22, ALONE OR IN COMBINATION WITH PHYSALEMIN, AS A THERAPEUTIC AGENT” (priority 2007, published 2010)
